Our source for the IC50 values is US20230174538A1, “Tricyclic heterocycles” (Merck Patent GmbH, priority 2020, published 2023).

A value given as a limit tells only on which side of the number the result lay.

The subject of this assay is YAP-TEAD interaction. Nature of the assay: SK-HEP-1 reporter assay (8xTEAD responsive elements driving NanoLuc luciferase). Format: cell-based. The note with it: Homo sapiens, SK-HEP1, SK-HEP-1 reporter assay. On the procedure:
To identify inhibitors of YAP-TEAD interaction, 8×TEAD responsive elements driving the NanoLuc® luciferase gene were stably integrated into SK-HEP-1 cells (ECACC #: 91091816).
For the assay, cells were treated in duplicates with the test compounds in a 10-point dose, with the top concentration starting at 30 μM (final concentration in assay). After a 24 hour incubation at 37° C., 95% rH, and 5% CO2, a luciferase substrate/lysis reagent mix (NanoGlo™, Promega) was added to the cells, allowing the quantification of cellular luciferase activity.
Cell Media: The cells were cultured in the following media: MEM, +10% FBS, +1× GlutaMAX, +1 mM Sodium-Pyruvate, +100 μM Non-essential amino acids, +0.1 mg/ml Hygromycin. The media used for the assay was: MEM (w/o Phenol Red), +10% FBS, +1× GlutaMAX, +1 mM Sodium-Pyruvate, +100 μM Non-essential amino acids, +0.5% Pen/Strep
Reagents: The reagents used are listed below:
Cell culture: The cells were examined using an inverted microscope to check for health and cell density. To dissociate adherent cells, the monolayer of cells was washed once with pre-warmed PBS. After removing the PBS, 3 ml pre-warmed Accutase® was added to a F75 flask, dispersed evenly and the flask was allowed to sit in incubator for ˜4-5 minutes.
When a single cell suspension was obtained, 7 ml of prewarmed growth media was added and resuspended with the cells. The cell suspension was transferred to a sterile 15 ml conical centrifuge tube, and spun for 5 min at 300×g, RT. The supernatant was discarded and the pellet was resuspended in 10 ml of pre-warmed growth media.
The total cell count was determined, and 20 μl of the desired cell number was added to each well of a 384 well plate using a Multidrop Combi. The plates were then incubated for 24 hours at 37° C., 95% rH, and 5% CO2.
Compound treatment: 24 hours after seeding, the cells were treated with compounds.
A 1:333 dilution of compounds, diluted in DMSO, was made to get a final concentration of 0.3% DMSO per well. To transfer the compounds to the assay plate, 120 nl was shot from Labcyte low dead volume plates to the cell plates containing 20 μl media/well with the ECHO 555 liquid handling system.
After treatment, the cells were fed with 20 μl fresh pre-warmed assay media using a Multidrop combi.
The assay plates were then incubated for another 24 h at 37° C., 95% rH, and 5% CO2.
Luciferase readout: 24 h after treatment, the plates were taken out of the incubator and were allowed to equilibrate to RT. 30 μl of NanoGlo® reagent was added to the plates in the dark. Plates were shaken for 20 min on a Teleshake (˜1500 rpm) in the dark. The luminescence was then measured using an EnVision microplate reader. The IC50 values were generated using Genedata Screener®.
As usually defined, the IC50 is the midpoint of a concentration-inhibition curve. Lower therefore signals higher potency. The compound `Cc1ccnn1CC(C)CNC(=O)c1ccc2c(c1)c1cn(C)nc1n2-c1ccc(C(F)(F)F)cc1` (stereo not shown) [B106^] had an IC50 above 10000 nM.
For `Cc1nccc(C2(NC(=O)c3ccc4c(c3)c3cn(C)nc3n4-c3ccc(C(F)(F)F)cc3)CC2)n1` [Example B69, 2-methyl-N-[1-(2-methylpyrimidin-4-yl)cyclopropyl]-8-[4-(trifluoromethyl)phenyl]-2H,8H-pyrazolo[3,4-b]indole-5-carboxamide], the IC50 is above 10000 nM.
`Cn1cc2c3cc(C(=O)NC4CCCn5nccc54)ccc3n(-c3ccc(C(F)(F)F)cc3)c2n1` (stereo not shown) [Example B76, 2-methyl-N-(4H,5H,6H,7H-pyrazolo[1,5-a]pyridin-4-yl}-8-[4-(trifluoromethyl)phenyl]-2H,8H-pyrazolo[3,4-b]indole-5-carboxamide] returned an IC50 of 10 to 100 nM.
The same measure for `Cn1cc2c3cc(C(=O)O)ccc3n(Cc3cccc(C(F)(F)F)c3)c2n1` [Example 8, 2-Methyl-8-{[3-(trifluoromethyl)phenyl]methyl}-2H,8H-pyrazolo[3,4-b]indole-5-carboxylic acid]: 100 to 10000 nM; for `COc1cc(C(C)NC(=O)c2ccc3c(c2)c2cn(C)nc2n3-c2ccc(C(F)(F)F)cc2)sn1` (stereo not shown) [Example B83, N-[1-(3-methoxy-1,2-thiazol-5-yl)ethyl]-2-methyl-8-[4-(trifluoromethyl)phenyl]-2H,8H-pyrazolo[3,4-b]indole-5-carboxamide]: 100 to 10000 nM; for `Cc1cc(CC(C)NC(=O)c2ccc3c(c2)c2cn(C)nc2n3-c2ccc(C(F)(F)F)cc2)n[nH]1` (stereo not shown) [B101^]: above 10000 nM.
The same measure for `Cn1cc2c3cc(C(=O)N4CC(O)C5(CCOCC5)C4)ccc3n(-c3ccc(C(F)(F)F)cc3)c2n1` (stereo not shown) [Example B56, 2-(2-methyl-8-[4-(trifluoromethyl)phenyl]-2H,8H-pyrazolo[3,4-b]indole-5-carbonyl}-8-oxa-2-azaspiro[4.5]decan-4-ol]: above 10000 nM; for `Cc1n[nH]c(C)c1C(C)NC(=O)c1ccc2c(c1)c1cn(C)nc1n2-c1ccc(C(F)(F)F)cc1` (stereo not shown) [Example B21, N-[1-(3,5-dimethyl-1H-pyrazol-4-yl)ethyl]-2-methyl-8-[4-(trifluoromethyl)phenyl]-2H,8H-pyrazolo[3,4-b]indole-5-carboxamide]: 10 to 100 nM; for `Cn1cc2c(n1)c1cc(S(C)(=O)=O)ccc1n2-c1ccc(C(F)(F)F)cc1` [Example 33, 7-methanesulfonyl-2-methyl-4-[4-(trifluoromethyl)phenyl]-2H,4H-pyrazolo[4,3-b]indole]: 100 to 10000 nM.
In turn, `Cc1cnn(CC(C)NC(=O)c2ccc3c(c2)c2cn(C)nc2n3-c2ccc(C(F)(F)F)cc2)c1` (stereo not shown) [Example B66, 2-methyl-N-[1-(4-methyl-1H-pyrazol-1-yl)propan-2-yl]-8-[4-(trifluoromethyl)phenyl]-2H,8H-pyrazolo[3,4-b]indole-5-carboxamide] came in with a 50% inhibitory concentration (IC50) of 100 to 10000 nM.
For the compound `Cn1cc2c3cc(C(=O)NCCc4cn[nH]c4)ccc3n(-c3ccc(C(F)(F)F)cc3)c2n1` [B100^], the IC50 is 1 to 10 nM.
On to `COCc1ocnc1CNC(=O)c1ccc2c(c1)c1cn(C)nc1n2-c1ccc(C(F)(F)F)cc1` [Example B49, N-{[5-(methoxymethyl)-1,3-oxazol-4-yl]methyl}-2-methyl-8-[4-(trifluoromethyl)phenyl]-2H,8H-pyrazolo[3,4-b]indole-5-carboxamide], for which the concentration for half-maximal inhibition (IC50) lay in the range of 10 to 100 nM.
`Cn1cc2c3cc(C(=O)NC4(c5ccncc5F)CC4)ccc3n(-c3ccc(C(F)(F)F)cc3)c2n1` [B127^]: the IC50 lay in the range of 100 to 10000 nM.
Next, `CCC(NC(=O)c1ccc2c(c1)c1cn(C)nc1n2-c1ccc(C(F)(F)F)cc1)c1ncc[nH]1` (stereo not shown) [Example B7, N-[1-(1H-imidazol-2-yl)propyl]-2-methyl-8-[4-(trifluoromethyl)phenyl]-2H,8H-pyrazolo[3,4-b]indole-5-carboxamide]: above 10000 nM; `Cn1cc2c3cc(C(=O)N(CCO)CC4CC=CCC4)ccc3n(-c3ccc(C(F)(F)F)cc3)c2n1` (stereo not shown) [Example B12, N-[(cyclohex-3-en-1-yl)methyl]-N-(2-hydroxyethyl)-2-methyl-8-[4-(trifluoromethyl)phenyl]-2H,8H-pyrazolo[3,4-b]indole-5-carboxamide]: 100 to 10000 nM; `Cn1cc2c3cc(C(=O)N[C@@H]4C[C@H](O)c5ccccc54)ccc3n(-c3ccc(C(F)(F)F)cc3)c2n1` (relative stereo) [Example B1, N-[(1R,3S)-3-hydroxy-2,3-dihydro-1H-inden-1-yl]-2-methyl-8-[4-(trifluoromethyl)phenyl]-2H,8H-pyrazolo[3,4-b]indole-5-carboxamide]: 100 to 10000 nM.
As for `CCC(NC(=O)c1ccc2c(c1)c1cn(C)nc1n2-c1ccc(C(F)(F)F)cc1)c1c(C)noc1C` (stereo not shown) [Example B71, N-[1-(3,5-dimethyl-1,2-oxazol-4-yl)propyl]-2-methyl-8-[4-(trifluoromethyl)phenyl]-2H,8H-pyrazolo[3,4-b]indole-5-carboxamide], the concentration for half-maximal inhibition (IC50) fell in the range of 10 to 100 nM.
The compound `CC(NC(=O)c1ccc2c(c1)c1cn(C)nc1n2-c1ccc(C(F)(F)F)cc1)c1cc[nH]n1` (stereo not shown) [Example B39, 2-methyl-N-[1-(lH-pyrazol-5-yl)ethyl]-8-[4-(trifluoromethyl)phenyl]-2H,8H-pyrazolo[3,4-b]indole-5-carboxamide] came in with an IC50 of 10 to 100 nM.
On to `Cc1nnc2n1CCCC2NC(=O)c1ccc2c(c1)c1cn(C)nc1n2-c1ccc(C(F)(F)F)cc1` (stereo not shown) [Example B64, 2-methyl-N-(3-methyl-5H,6H,7H,8H-[1,2,4]triazolo[4,3-a]pyridin-8-yl}-8-[4-(trifluoromethyl)phenyl]-2H,8H-pyrazolo[3,4-b]indole-5-carboxamide], for which the concentration for half-maximal inhibition (IC50) is above 10000 nM.
Take `Cn1cc2c3cc(C(=O)NCCc4nc(C5CC5)n[nH]4)ccc3n(-c3ccc(C(F)(F)F)cc3)c2n1` [Example B28, N-[2-(3-cyclopropyl-1H-1,2,4-triazol-5-yl)ethyl]-2-methyl-8-[4-(trifluoro-methyl)phenyl]-2H,8H-pyrazolo[3,4-b]indole-5-carboxamide]: the half-maximal inhibitory concentration (IC50) was in the range of 100 to 10000 nM.
In turn, `Cn1cc2c3cc(C(=O)NCc4c(C5CC5)cnn4C)ccc3n(-c3ccc(C(F)(F)F)cc3)c2n1` [B102^] showed a concentration for half-maximal inhibition (IC50) of 10 to 100 nM.
In turn, `Cn1cc2c3cc(C(=O)N4CC(c5ocnc5CO)C4)ccc3n(-c3ccc(C(F)(F)F)cc3)c2n1` [Example B30, [5-(1-{2-methyl-8-[4-(trifluoro-methyl)phenyl]-2H,8H-pyrazolo[3,4-b]indole-5-carbonyl}azetidin-3-yl)-1,3-oxazol-4-yl]methanol] gave an IC50 above 10000 nM.
On to `Cn1cc2c3cc(C(=O)NC4(C5CCCO5)CCC4)ccc3n(-c3ccc(C(F)(F)F)cc3)c2n1` (stereo not shown) [Example B81, 2-methyl-N-[1-(oxolan-2-yl)cyclobutyl]-8-[4-(trifluoromethyl)phenyl]-2H,8H-pyrazolo[3,4-b]indole-5-carboxamide], for which the half-maximal inhibitory concentration (IC50) is 100 to 10000 nM.
The same measure for `CO[C@H]1C[C@@H](CCO)N(C(=O)c2ccc3c(c2)c2cn(C)nc2n3-c2ccc(C(F)(F)F)cc2)C1` (single isomer, unassigned) [Example B4]: above 10000 nM.
The same measure for `COCC(NC(=O)c1ccc2c(c1)c1cn(C)nc1n2-c1ccc(C(F)(F)F)cc1)c1ccc(C)o1` (stereo not shown) [Example B34, N-[2-methoxy-1-(5-methylfuran-2-yl)ethyl]-2-methyl-8-[4-(trifluoromethyl)phenyl]-2H,8H-pyrazolo[3,4-b]indole-5-carboxamide]: 10 to 100 nM; for `Cn1cc2c3cc(C(=O)N4[C@H](CO)C[C@@H]5CCCC[C@@H]54)ccc3n(-c3ccc(C(F)(F)F)cc3)c2n1` (single isomer, unassigned) [Example B32]: 100 to 10000 nM.
For the compound `Cc1cnc2n1CCC2NC(=O)c1ccc2c(c1)c1cn(C)nc1n2-c1ccc(C(F)(F)F)cc1` (stereo not shown) [Example B57, 2-methyl-N-(3-methyl-5H,6H,7H-pyrrolo[1,2-a]imidazol-7-yl}-8-[4-(trifluoromethyl)phenyl]-2H,8H-pyrazolo[3,4-b]indole-5-carboxamide], the half-maximal inhibitory concentration (IC50) was in the range of 100 to 10000 nM.
Regarding `Cn1cc2c3cc(C(=O)NCc4ccc(F)c(CO)c4)ccc3n(-c3ccc(C(F)(F)F)cc3)c2n1` [Example B19, N-{[4-fluoro-3-(hydroxymethyl)-phenyl]methyl}-2-methyl-8-[4-(trifluoromethyl)phenyl]-2H,8H-pyrazolo[3,4-b]indole-5-carboxamide], the 50% inhibitory concentration (IC50) lay within 1 to 10 nM.
